# Assay results from PubChem BioAssay (NCI).
#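 Briefly, cells in 96-well plates were exposed to five compound concentrations for 48 h, and endpoints were estimated by linear interpolation. At the TGI there is no net growth.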
# Key:
# Assay in all cases: DTP human tumour cell line panel, 48 h
# 786-0 renal = test system: 786-0 renal
# A549 NSCLC = test system: A549 NSCLC
# BT-549 breast = test system: BT-549 breast
# CAKI-1 renal = test system: CAKI-1 renal
# HCC-2998 colon = test system: HCC-2998 colon
# HCT-116 colon = test system: HCT-116 colon
# HCT-15 colon = test system: HCT-15 colon
# HOP-62 NSCLC = test system: HOP-62 NSCLC
# M14 melanoma = test system: M14 melanoma
# MDA-MB-231 breast = test system: MDA-MB-231 breast
# MDA-N = test system: MDA-N
# NCI-H23 lung = test system: NCI-H23 lung
# NCI-H522 lung = test system: NCI-H522 lung
# NCI/ADR-RES ovarian = test system: NCI/ADR-RES ovarian
# OVCAR-5 ovarian = test system: OVCAR-5 ovarian
# SK-MEL-2 melanoma = test system: SK-MEL-2 melanoma
# SK-OV-3 ovarian = test system: SK-OV-3 ovarian
# SR leukemia = test system: SR leukemia
# RXF 393 renal = test system: RXF 393 renal
SMILES,TGI (786-0 renal) [µM],TGI (A549 NSCLC) [µM],TGI (BT-549 breast) [µM],TGI (CAKI-1 renal) [µM],TGI (HCC-2998 colon) [µM],TGI (HCT-116 colon) [µM],TGI (HCT-15 colon) [µM],TGI (HOP-62 NSCLC) [µM],TGI (M14 melanoma) [µM],TGI (MDA-MB-231 breast) [µM],TGI (MDA-N) [µM],TGI (NCI-H23 lung) [µM],TGI (NCI-H522 lung) [µM],TGI (NCI/ADR-RES ovarian) [µM],TGI (OVCAR-5 ovarian) [µM],TGI (SK-MEL-2 melanoma) [µM],TGI (SK-OV-3 ovarian) [µM],TGI (SR leukemia) [µM],TGI (RXF 393 renal) [µM]
C=C1CC(C)(COc2cc(=O)oc3ccccc23)OC1=O (stereo not drawn),11.8,28.2,7.89,6.32,42.9,9.64,13,42.1,2.95,23.1,16.3,11.4,5.2,24,22.3,11.8,22.5,11.2,
CCN(CC)C(=S)N/N=C/c1cc(OC)ccc1O,> 100,> 100,> 100,,27.8,> 100,> 100,> 100,16.6,> 100,> 100,> 100,> 100,40.4,> 100,> 100,> 100,8.9,> 100
COC(=O)[C@H](COC(C)(C)C)NC(=O)N[C@H](C)c1ccccc1,> 100,> 100,> 100,> 100,> 100,> 100,> 100,> 100,> 100,> 100,> 100,> 100,> 100,> 100,> 100,> 100,> 100,> 100,
COC(=O)[C@]1(C)CCC[C@]2(C)[C@@H](CCC(=O)C(C)C)[C@]3(C=O)O[C@@H]3C[C@H]21,> 100,> 100,77.3,31.9,> 100,57.7,> 100,,> 100,> 100,75.1,> 100,46.6,90.4,> 100,> 100,> 100,> 100,51.7
CC(=O)N=c1ccc2nc(N)nn(O)c-2c1,> 100,> 100,> 100,> 100,,> 100,> 100,> 100,> 100,> 100,> 100,> 100,> 100,> 100,> 100,> 100,> 100,> 100,
Cc1c2ccccc2c(C2C3C(=O)N(c4cccc5ccccc45)C(=O)C3ON2Cc2ccc(CC(N)=O)cc2)c2ccccc12 (stereo not drawn),> 50,> 50,> 50,> 50,,> 50,> 50,> 50,> 50,> 50,35.6,> 50,> 50,> 50,> 50,31.3,> 50,37.6,40
CC[C@@H]1CC[C@@H]2[C@H](CC[C@]3(C)[C@@H](OC(C)=O)CC[C@@H]23)[C@H]1C(=O)OC,47.3,70.8,> 100,> 100,> 100,33.7,49.5,53.7,42.3,46,41.4,59.6,47.8,68.5,59.5,39.2,> 100,,49.8
CC(=O)O[C@H]1CC[C@@]2(C)C(=CC[C@@H]3[C@@H]2CC[C@](C)(c2nnc(C)o2)[C@H]3CC#N)C1,> 100,> 100,> 100,> 100,,> 100,> 100,> 100,> 100,> 100,> 100,> 100,> 100,> 100,> 100,> 100,> 100,> 100,> 100
c1ccc2cc(CNCCCCNCCCNCc3ccc4ccccc4c3)ccc2c1,0.323,4.25,3.37,3.31,0.944,0.318,1.58,3.31,3.69,3.95,2.54,3.43,2.78,3.47,3.61,4.16,3.48,,3.16
CCCNCC(O)CNc1ccc(NCC(O)CNCCC)c2c1C(=O)c1ccccc1C2=O (stereo not drawn),8.21,4.64,6.99,28.7,3.21,8.31,75,8,11,10.1,11.7,12.2,7.81,> 75,3.99,5.22,7.78,11,
O=C1Nc2ccccc2/C1=C\c1c(-c2ccccc2)nc2n1CCS2,45.5,> 100,43.7,> 100,34.8,49.2,52.3,> 100,87.9,47,65,66.3,51.7,68.1,58.5,28.5,67.1,,47.2
COc1ccc(NS(=O)c2c(C)cc(C)cc2C)cc1 (stereo not drawn),> 100,> 100,> 100,,> 100,> 100,> 100,> 100,> 100,> 100,> 100,> 100,> 100,> 100,> 100,> 100,,> 100,
Fc1cccc(C2SCc3nc4cc5ccccc5cc4n32)c1 (stereo not drawn),> 100,> 100,> 100,> 100,> 100,> 100,> 100,> 100,> 100,> 100,> 100,> 100,,> 100,> 100,> 100,> 100,> 100,> 100
Nc1nc(N)c2ncn(-c3ccccc3)c2n1,> 100,> 100,> 100,> 100,> 100,> 100,> 100,> 100,> 100,> 100,> 100,> 100,> 100,> 100,> 100,> 100,> 100,,> 100
O=C(CCc1ccc(O)c(O)c1)NCCc1cc(O)c(O)c(O)c1,32.6,54.2,31.1,,> 100,33,32.1,> 100,48.1,28.5,30.6,31.3,40.2,40.9,> 100,50.6,> 100,> 100,> 100
COC(=O)CC(CNC(=O)OCc1ccccc1)OCc1ccc(OC)cc1 (stereo not drawn),> 100,> 100,> 100,> 100,> 100,> 100,> 100,,> 100,> 100,> 100,> 100,> 100,> 100,> 100,> 100,> 100,> 100,> 100
C=CC(OC(=O)C(C)C)c1ccc(OC(=O)C(C)C)cc1 (stereo not drawn),18.9,36.9,31.2,10.2,26.7,20.6,20.2,22.6,21.4,35.5,25.9,51.4,3.56,54.8,20.2,24,34,> 100,
COc1ccc2c(c1)-c1nc(=O)n(CCCN(C)C)c3ccc([N+](=O)[O-])c(c13)N2,1.94,17,16.8,5.26,17.7,12.8,8.55,2.39,3.69,2.09,19.2,4.5,1.93,10.4,4.89,27.6,17.3,2.44,
Cc1ccc(SCC(CF)OC(C)n2cnc3c(Cl)nc(N)nc32)cc1 (stereo not drawn),> 100,> 100,> 100,> 100,> 100,> 100,> 100,> 100,> 100,> 100,> 100,> 100,36.1,> 100,> 100,> 100,> 100,> 100,
COC(=O)[C@@H](OC(C)=O)[C@@H](OC(C)=O)c1nnc2ccc(Cl)nn12,> 100,> 100,> 100,> 100,> 100,> 100,> 100,> 100,> 100,> 100,> 100,> 100,95.3,> 100,> 100,> 100,> 100,,> 100
CCCCCCCCCCCCCCCC(=O)Nc1ccn(C2CCC(COP(=O)(O)OCC3OC(n4cc(F)c(=O)[nH]c4=O)CC3OC(C)=O)O2)c(=O)n1 (stereo not drawn),> 100,> 54.2,58.4,> 42.5,> 48.2,34.1,> 100,37.7,28.1,> 61.6,50.4,47.9,27.7,> 100,> 74.5,47.6,> 90.2,,> 100
CC(Cc1cccc2c1Nc1ccccc1S2)N(C)CCO (stereo not drawn),> 100,> 100,> 100,> 100,> 100,> 100,> 100,> 100,> 100,> 100,> 100,> 100,> 100,> 100,> 100,,> 100,> 100,> 100
CC(CNC(=O)c1ccccc1)(CNC(=O)c1ccccc1)[N+](=O)[O-],> 100,> 100,> 100,> 100,,> 100,> 100,,> 100,> 100,> 100,> 100,> 100,> 100,> 100,> 100,> 100,> 100,> 100
O=c1oc2ccc3ccccc3c2cc1-c1cn2c(n1)sc1ccccc12,> 100,> 100,> 100,> 100,> 100,> 100,> 100,> 100,> 100,> 100,> 100,> 100,> 100,> 100,> 100,> 100,> 100,,> 100
Cc1cnc2c(c1)C(=O)N(c1ccc([N+](=O)[O-])cc1)S2(=O)=O,> 100,> 100,> 100,> 100,> 100,> 100,> 100,> 100,> 100,> 100,> 100,> 100,> 100,> 100,> 100,> 100,> 100,99.2,
CC(C)CC(NC=O)C(=O)NC(Cc1ccccc1)NC(=O)CNC(=O)C(C)NC(=O)C(N)Cc1ccc(O)cc1 (stereo not drawn),> 100,> 100,> 100,> 100,,> 100,> 100,> 100,> 100,> 100,> 100,> 100,> 100,> 100,> 100,,> 100,> 100,> 100
